Where a chain is given by its changes, count along the chain named.
Tests used:
[1] = target: FOL I207E variant; experiment: Enzyme assay p-NP butyrate, inhibitory effect of peptides on FoL variant I207E (Example 8); type: biochemical, Fusarium oxysporum; conditions: for IC50 value (half maximal inhibitory concentration): FOL I207E variant, fitted against inhibitor/lipase ratio (peptide excess 0.5 to 1000), p-NP butyrate, pH 7
Protocol: (§1) Enzyme assay: The substrate used for these experiments was para-nitropenyl (p-NP) butyrate (N9876 Sigma Aldrich). A substrate stock solution was prepared by adding 18 μL of p-NP butyrate to 1 ml of 2-propanol giving a 100 mM stock solution. The working solution was prepared by diluting 500 μL stock solution in final volume of 50 mL 500 mM phosphate pH 7, 0.4% triton X-100. […] An enzyme substrate blank containing 60 μL was included. After pre-incubation in minimum 15 minutes, 100 μL of substrate was added and the reaction was followed in microtiter plate spectrophotometer (SPECTRAmax PLUS 384 from Molecular Devices) after an initial shaking (5 sec.) at room temperature. Colour development over time was monitored at A405 (every 20 sec. for 30 minutes), measuring p-nitrophenol, one of the degradation products of p-NP butyrate, liberated by the hydrolysis.
(§2) Initial reaction rates (determined as the linear initial slope of A405 plotted against time) were plotted against the logarithm to the inhibitor/lipase ratio. From the following model IC50 values were determined:
(§3) v0 is the initial reaction rate, vmax is the maximum rate, vmin is the minimum reaction rate and IC50 is the half maximal inhibitory concentration. GraphPad Prism (v.5.00, Mar. 12, 2007) from GraphPad Software, Inc. was used for regression.

[2] = target: FOL wt; experiment: Enzyme assay p-NP butyrate, inhibitory effect of peptides on FoL wildtype (Example 8); type: biochemical, Fusarium oxysporum; conditions: fitted against inhibitor/lipase ratio (peptide excess 0.5 to 1000), pH 7
Protocol: as §1, §2, §3

[3] = target: T1, TLL variant N248G/Q249G/P250T/N251L/I252G/P253L (Thermomyces lanuginosus, UniProt O59952, I274G/N270G/N273L/P272T/P275L/Q271G); experiment: Enzyme assay p-NP butyrate, inhibitory effect of peptides on TLL variant (Example 9); type: biochemical; conditions: peptide/lipase ratios 5 to 5000 (P11, P13), 6 to 6000 (P12)
T1 sequence (O59952 23-291 N270G/Q271G/P272T/N273L/I274G/P275L): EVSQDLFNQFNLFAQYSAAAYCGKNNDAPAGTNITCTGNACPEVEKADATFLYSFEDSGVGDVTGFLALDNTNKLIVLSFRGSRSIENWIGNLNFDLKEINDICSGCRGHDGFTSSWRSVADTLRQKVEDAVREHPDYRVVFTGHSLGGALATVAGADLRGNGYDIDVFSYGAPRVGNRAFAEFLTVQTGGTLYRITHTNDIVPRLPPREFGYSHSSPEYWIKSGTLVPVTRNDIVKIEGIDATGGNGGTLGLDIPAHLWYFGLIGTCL
Protocol: as §1, §2, §3
Enzyme assay: As described above.

[4] = Lecithin plate assay, clearing zone (phospholipase activity); type: biochemical; conditions: for Clearing zone diameter: after 20 hours incubation

Chain of FOL I207E variant (as listed by the source, stated change not applied): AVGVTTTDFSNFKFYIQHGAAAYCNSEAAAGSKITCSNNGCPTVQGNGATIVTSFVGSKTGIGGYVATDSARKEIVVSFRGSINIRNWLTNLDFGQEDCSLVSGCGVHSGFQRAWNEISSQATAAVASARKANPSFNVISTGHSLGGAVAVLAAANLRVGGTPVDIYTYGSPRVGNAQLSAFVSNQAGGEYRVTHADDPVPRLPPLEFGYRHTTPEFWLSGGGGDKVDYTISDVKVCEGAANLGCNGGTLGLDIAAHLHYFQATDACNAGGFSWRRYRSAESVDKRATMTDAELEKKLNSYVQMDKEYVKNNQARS

ATMTDAELEKKLNSYVQMAKEYVKNNQARS [P1′]
IC50 value (half maximal inhibitory concentration) [1]: No
IC50 value (half maximal inhibitory concentration) [2]: No

ATMTDAELEKKLNSYVQMDKEEVKNNQARS [Peptide P4]
IC50 value (half maximal inhibitory concentration) [1]: Very low
IC50 value (half maximal inhibitory concentration) [2]: No

ATMTDAELEKKLNSYVQMDKEYVKNNQARS [Peptide P0]
binding of the peptide by FoL variant I207E compared with wildtype enzyme (% inhibition curves, FIG. 8 C) ([1]; 0% inhibition assumed for lowest peptide concentration): better at binding the peptide than the wildtype enzyme

ATMTDAELTKKLNSYVQMDKEYVKNNQARS [Peptide P2]
IC50 value (half maximal inhibitory concentration) [2]: Very low

ATMTDAEVEKKLNSYVQMDKEYVKNNQARS [Peptide P11]
IC50 value (half maximal inhibitory concentration) [3]: Very low

ATMTEAELEKKLNSYVQMDKEYVKNNQARS [Peptide P1]
IC50 value (half maximal inhibitory concentration) [2]: Very low

B1: FoL: Fusarium oxysporum lipase, SEQ ID No. 1 (protein, listed as Fusarium oxysporum)
chain: AVGVTTTDFSNFKFYIQHGAAAYCNSEAAAGSKITCSNNGCPTVQGNGATIVTSFVGSKTGIGGYVATDSARKEIVVSFRGSINIRNWLTNLDFGQEDCSLVSGCGVHSGFQRAWNEISSQATAAVASARKANPSFNVISTGHSLGGAVAVLAAANLRVGGTPVDIYTYGSPRVGNAQLSAFVSNQAGGEYRVTHADDPVPRLPPLIFGYRHTTPEFWLSGGGGDKVDYTISDVKVCEGAANLGCNGGTLGLDIAAHLHYFQATDACNAGGFSWRRYRSAESVDKRATMTDAELEKKLNSYVQMDKEYVKNNQARS
Clearing zone diameter ([4]; ODA280 0.2): 7 mm
Clearing zone diameter ([4]; ODA280 0.5): 10 mm

B2: TLL: Thermomyces lanuginosus lipase, SEQ ID No. 9 (protein, listed as Thermomyces lanuginosus)
chain: T1 sequence (O59952 23-291 N270G/Q271G/P272T/N273L/I274G/P275L) with G248N, G249Q, T250P, L251N, G252I, L253P
Clearing zone diameter ([4]; ODA280 0.2): 0 mm
Clearing zone diameter ([4]; ODA280 0.5): 0 mm
Clearing zone (in words) ([4]; after 20 hours of incubation, ODA280 0.2 and 0.5): did not show a clearing zone

Reference: patent US8288510B2, “Isolated peptides having phospholipase inhibitory activity” (priority 2008, dated 2012)
